The values below are quoted from earlier work in article PMC9998351 (Steroids, 2023).

This series concerns CRPC CWR22Rv1 xenograft tumors. As to conditions: CWR22Rv1 xenograft; 2 at 7.53-fold lower equimolar dose than Gal; p < 0.01; ref [26]; cited from earlier work.

As for `C[C@]12CC[C@H](O)CC1=CC[C@@H]1[C@@H]2CC[C@]2(C)C(n3cnc4ccccc43)=CC[C@@H]12` [Gal, Galeterone, reference compound], the “Suppression of tumor growth” value was 47%.
